Data published in paper PMC9944867, “Mechanistic in vitro studies indicate that the clinical drug–drug interactions between protease inhibitors and rosuvastatin are driven by inhibition of intestinal BCRP and hepatic OATP1B1 with minimal contribution from OATP1B3, NTCP and OAT3” (Pharmacology Research & Perspectives, 2023).
Marks after values point to notes of the source that are not given here.

Experiments:
OATP1B1 [1] = molecular target: T1, OATP1B1 (Homo sapiens, UniProt Q9Y6L6); test: OATP1B1 inhibition in transporter-expressing HEK293 cells, [3H]-estradiol 17β-D-glucuronide uptake (IC50 determination); details: human, HEK293 cells expressing OATP1B1 (with vector control cells), pH 7.4, probe [3H]-estradiol 17β-D-glucuronide (0.02 μM), IC50, determined values from different occasions (OATP1B1), OATP1B1-mediated transport of [3H]-estradiol 17β-D-glucuronide (0.02 μM), HEK293; single occasion
T1 sequence (Q9Y6L6 1-691): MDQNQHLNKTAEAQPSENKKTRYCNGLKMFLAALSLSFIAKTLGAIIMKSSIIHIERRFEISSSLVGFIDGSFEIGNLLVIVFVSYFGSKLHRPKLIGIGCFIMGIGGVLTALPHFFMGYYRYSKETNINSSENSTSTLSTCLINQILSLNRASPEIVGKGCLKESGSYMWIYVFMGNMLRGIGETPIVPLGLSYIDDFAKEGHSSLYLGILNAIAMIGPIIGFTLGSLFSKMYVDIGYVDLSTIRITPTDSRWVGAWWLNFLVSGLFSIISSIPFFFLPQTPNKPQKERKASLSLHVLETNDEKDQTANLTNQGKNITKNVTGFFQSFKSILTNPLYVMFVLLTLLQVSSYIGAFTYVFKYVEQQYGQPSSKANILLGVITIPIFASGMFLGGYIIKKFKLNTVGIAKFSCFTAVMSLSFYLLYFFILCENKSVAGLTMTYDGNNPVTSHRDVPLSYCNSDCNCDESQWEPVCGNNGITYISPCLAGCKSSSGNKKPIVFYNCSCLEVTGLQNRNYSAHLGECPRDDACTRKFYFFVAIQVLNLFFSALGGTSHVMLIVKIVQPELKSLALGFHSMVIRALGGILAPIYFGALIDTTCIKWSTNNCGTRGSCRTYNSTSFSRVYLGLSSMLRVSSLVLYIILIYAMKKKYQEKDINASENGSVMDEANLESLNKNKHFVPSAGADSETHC
Procedure: OATP1B1, OATP1B3, NTCP and vector control cell lines were cultured and subsequent transporter assays conducted as described above using the same transporter‐specific probe substrates and incubation times. For OATP1B1, the probe substrate was [^3H]‐estradiol 17β‐D‐glucuronide (0.02 μM) incubated for 2 min, with rifamycin SV (100 μM) as positive control inhibitor. For IC50 determinations, the only difference to the method performed above was that the 15‐min pre‐incubation step contained a range of six concentrations of protease inhibitor drug, and subsequent incubations were conducted with the same six concentration levels of drug rather than with a single concentration.

human OATP1B3 (SLCO1B3) = molecular target: T2, human OATP1B3 (SLCO1B3) (Homo sapiens, UniProt Q9NPD5); details: ≥10x [Iin max u]: atazanavir 50 μM, darunavir 15 μM, lopinavir 5 μM, ritonavir 0.3 μM; [3H]-estradiol 17β-D-glucuronide 0.02 μM
T2 sequence (Q9NPD5 1-702): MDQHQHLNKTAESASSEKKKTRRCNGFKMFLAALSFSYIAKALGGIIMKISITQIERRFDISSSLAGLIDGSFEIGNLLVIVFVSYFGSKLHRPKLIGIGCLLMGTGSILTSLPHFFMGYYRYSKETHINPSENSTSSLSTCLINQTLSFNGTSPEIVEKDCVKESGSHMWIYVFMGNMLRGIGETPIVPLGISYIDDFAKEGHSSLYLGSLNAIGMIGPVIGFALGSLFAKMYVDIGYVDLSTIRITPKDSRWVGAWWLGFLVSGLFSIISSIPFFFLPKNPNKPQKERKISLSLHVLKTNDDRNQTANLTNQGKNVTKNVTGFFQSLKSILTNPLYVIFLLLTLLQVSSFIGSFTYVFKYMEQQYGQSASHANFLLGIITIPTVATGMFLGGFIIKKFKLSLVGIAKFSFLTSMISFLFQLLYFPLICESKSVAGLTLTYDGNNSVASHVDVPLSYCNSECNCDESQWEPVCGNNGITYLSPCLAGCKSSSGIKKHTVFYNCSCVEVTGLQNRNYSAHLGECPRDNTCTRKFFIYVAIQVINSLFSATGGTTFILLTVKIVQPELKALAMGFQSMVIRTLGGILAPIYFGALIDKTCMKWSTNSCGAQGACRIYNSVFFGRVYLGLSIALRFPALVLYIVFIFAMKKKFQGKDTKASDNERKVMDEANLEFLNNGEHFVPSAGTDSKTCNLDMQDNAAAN

[2] = system: intestinal BCRP and hepatic OATP1B1, OATP1B3, NTCP; details: rosuvastatin; ref Elsby et al.[13]; cited from earlier work
BCRP = molecular target: T3, BCRP (Homo sapiens, UniProt Q9UNQ0); details: probe substrate pheophorbide A; ref Weiss et al.[15]; cited from earlier work
T3 sequence (Q9UNQ0 1-655): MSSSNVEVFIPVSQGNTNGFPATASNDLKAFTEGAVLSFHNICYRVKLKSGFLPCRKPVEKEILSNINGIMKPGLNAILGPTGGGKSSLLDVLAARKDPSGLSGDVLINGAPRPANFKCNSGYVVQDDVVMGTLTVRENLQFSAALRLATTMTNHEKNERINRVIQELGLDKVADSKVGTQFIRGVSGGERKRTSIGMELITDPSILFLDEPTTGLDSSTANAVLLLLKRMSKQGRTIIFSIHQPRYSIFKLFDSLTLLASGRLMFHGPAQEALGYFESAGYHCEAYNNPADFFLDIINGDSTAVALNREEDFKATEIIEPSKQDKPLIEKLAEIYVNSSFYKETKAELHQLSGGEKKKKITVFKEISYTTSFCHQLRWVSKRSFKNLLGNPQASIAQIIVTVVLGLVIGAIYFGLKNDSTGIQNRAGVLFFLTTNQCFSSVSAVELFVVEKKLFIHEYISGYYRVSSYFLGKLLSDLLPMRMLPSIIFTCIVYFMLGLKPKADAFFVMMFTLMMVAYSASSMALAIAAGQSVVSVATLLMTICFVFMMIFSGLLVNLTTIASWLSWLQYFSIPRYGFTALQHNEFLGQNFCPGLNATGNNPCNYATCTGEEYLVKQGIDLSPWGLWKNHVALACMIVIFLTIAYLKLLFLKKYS

OATP1B1 [3] = details: probe substrate atorvastatin; ref Karlgren et al.[31]; cited from earlier work
[4] = system: intestinal BCRP and hepatic OATP1B1, OATP1B3, NTCP; test: Mechanistic static prediction of rosuvastatin AUC change (AUCR); details: predicted AUCR 1.01
[5] = human, in vivo

| IC50 at 2 min (OATP1B1 [1]) [nM] | Inhibition of OATP1B3-mediated probe substrate transport, single concentration screen (human OATP1B3 (SLCO1B3)) | Structure (SMILES) | Predicted AUCR, inhibition of BCRP and OATP1B1 alone (earlier model) [2] | Published IC50/Ki (BCRP) (BCRP) | Published IC50/Ki (OATP1B1) (OATP1B1 [3]) | Reduction in NTCP function reflected by predicted AUCR [4] [%] | [Ig] maximal enterocyte concentration [5] | [Iin max u] unbound maximum hepatic inlet concentration [5] [µM] | [Iin max] maximum hepatic inlet concentration [5] |
| --- | --- | --- | --- | --- | --- | --- | --- | --- | --- |
| 928 | produced inhibition | COC(=O)N[C@H](C(=O)N[C@@H](Cc1ccccc1)[C@@H](O)CN(Cc1ccc(-c2ccccn2)cc1)NC(=O)[C@@H](NC(=O)OC)C(C)(C)C)C(C)(C)C [atazanavir] | 2.13 | 69.1 (pheophorbide A) μM | 0.91 (atorvastatin) μM | 4 |  |  |  |
|  |  | Cc1cccc(C)c1OCC(=O)N[C@@H](Cc1ccccc1)[C@@H](O)C[C@H](Cc1ccccc1)NC(=O)[C@H](C(C)C)N1CCCNC1=O [lopinavir] |  |  |  |  | 42.4 ^d μM | 0.450 | 22.5 ^d μM |
